# In patent US12497405B2, “Bicyclic heterocycle compounds methods of use thereof for the treatment of herpes viruses” (Merck Sharp & Dohme LLC, priority 2019, dated 2025):
# pEC50: −log10 of the molar value.
# What was measured:
# Type in all cases: cell-based
# CMV = assay: Viral qPCR assay, CMV; conditions: Human betaherpesvirus 5, 72 h, infected cells, viral genome copies by qPCR normalized to PPIA, read-out: CMV Cell EC50
# Procedure: (§1) MRC5 cells, Vero cells, and MeWo cells were obtained from ATCC, and were maintained at 37° C./5% CO2/90% relative humidity in Minimal Essential Medium with 10% fetal bovine serum, […] L-glutamine, 100 units/ml penicillin and 100 ug/ml streptomycin. Assay plates were prepared by dispensing compounds dissolved in DMSO into wells of 384 well collagen-coated plates using an ECHO acoustic dispenser. Each test compound was tested in a 10-point, serial 3-fold dilution. Controls included uninfected cells and infected cells treated only with DMSO. Assays were initiated by mixing selected cells, in suspension, with virus, and dispensing 50 μl/well infected cells to pre-plated compounds. Plates were incubated at 37° C./5% CO2/90% relative humidity for ˜72 hrs to permit genomic replication, and infected cells were lysed by the addition of an equal volume of lysis buffer (10 mM Tris-HCl, pH8, 50 mM KCl, 2 mM MgCl2, 0.45% NP-40, 0.45% Tween-20, and 100 µg/ml proteinase K). An aliquot of the lysate was then transferred to a 384-well PCR plate and incubated at 56° C. for 1 hour, and then at 95° C. for 10 minutes. Levels of the selected viral gene and of the cellular control, PPIA, were measured in separate 10 μl qPCR assays using TaqMan® Gene Expression Master Mix (Applied Biosystems), and an 7900HT Fast Real-Time PCR System with 384-Well Block Module. 7-point, serial 10-fold dilutions of a plasmid standard were run on each plate to generate a standard curve, and genome copies numbers were calculated by plotting experimental Ct onto linear regression of the standard curve. Viral genome copy numbers were normalized by cellular control copy number, and compound effects were normalized to the window defined by the controls. Calculated % effects were fit using a 4-parameter algorithm, and EC50 was reported.
# HSV1 = assay: Viral qPCR assay, HSV1; conditions: Human alphaherpesvirus 1, 72 h, infected cells, viral genome copies by qPCR normalized to PPIA, read-out: HSV1 Cell EC50
# Procedure: as §1
# HSV2 = assay: Viral qPCR assay, HSV2; conditions: Human alphaherpesvirus 2, 72 h, infected cells, viral genome copies by qPCR normalized to PPIA, read-out: HSV2 Cell EC50
# Procedure: as §1
Structure (SMILES),pEC50 (CMV),pEC50 (HSV1),pEC50 (HSV2)
Cc1nc2cc(-c3cn4ccccc4n3)c(O[C@H]3CCN4C(=O)OC[C@@H]4C3)cc2c(=O)n1Cc1ccc(Cl)cc1 [Example 104],7.00,7.35,7.49
Cc1nc2cc(-c3nc4ccccn4n3)c(O[C@H]3CCN4C(=O)OC[C@@H]4C3)cc2c(=O)n1Cc1ccc(Cl)cc1 [Example 105],6.95,7.32,7.26
N#Cc1nc2cc(-c3cnn(C(F)F)c3)c(O[C@H]3CCN4C(=O)OC[C@@H]4C3)cc2c(=O)n1Cc1ccc(Cl)cc1 [Example 106],6.84,6.99,7.14
Cc1nc2cc(-c3cc4cncnn4c3)c(O[C@H]3CCN4C(=O)OC[C@@H]4C3)cc2c(=O)n1Cc1ccc(Cl)cc1 [Example 107],7.28,7.28,7.51
Cc1nc2cc(-c3cc4n(n3)CCN(C3CCOCC3)C4)c(O[C@H]3CCN4C(=O)OC[C@@H]4C3)cc2c(=O)n1Cc1ccc(Cl)cc1 [Example 108],6.70,6.70,7.06
Cc1nc2cc(-c3cnc(OC4CCOCC4)nc3)c(O[C@H]3CCN4C(=O)OC[C@@H]4C3)cc2c(=O)n1Cc1ccc(Cl)cc1 [Example 109],6.33,6.38,6.82
Cc1ccc(-c2cc3nc(C)n(Cc4ccc(Cl)cc4)c(=O)c3cc2O[C@H]2CCN3C(=O)OC[C@@H]3C2)nn1 [Example 110],6.70,6.54,6.88
Nc1nc2cc(-c3cnn(C(F)F)c3)c(O[C@H]3CCN4C(=O)OC[C@@H]4C3)cc2c(=O)n1Cc1ccc(Cl)cc1 [Example 111],7.07,7.00,7.22
COc1ccc(-c2cc3nc(C)n(Cc4ccc(Cl)cc4)c(=O)c3cc2O[C@H]2CCN3C(=O)OC[C@@H]3C2)nc1 [Example 112],6.85,6.83,7.09
COc1cnc(-c2cc3nc(C)n(Cc4ccc(Cl)cc4)c(=O)c3cc2O[C@H]2CCN3C(=O)OC[C@@H]3C2)cn1 [Example 113],5.53,5.57,5.77
Cc1nc2cc(-c3cnc(OC4CC4)nc3)c(O[C@H]3CCN4C(=O)OC[C@@H]4C3)cc2c(=O)n1Cc1ccc(Cl)cc1 [Example 114],6.46,6.49,6.91
Cc1nc2cc(-c3cnc(C4CCOCC4)nc3)c(O[C@H]3CCN4C(=O)OC[C@@H]4C3)cc2c(=O)n1Cc1ccc(Cl)cc1 [Example 115],6.59,6.50,6.95
Cc1nc2cc(-c3cn4cccnc4n3)c(O[C@H]3CCN4C(=O)OC[C@@H]4C3)cc2c(=O)n1Cc1ccc(Cl)cc1 [Example 116],6.90,6.97,7.21
Cc1cnc(-c2cc3nc(C)n(Cc4ccc(Cl)cc4)c(=O)c3cc2O[C@H]2CCN3C(=O)OC[C@@H]3C2)nc1 [Example 117],6.52,6.19,6.34
Cc1nc2cc(-c3cncnc3)c(O[C@H]3CCN4C(=O)OC[C@@H]4C3)cc2c(=O)n1Cc1ccc(Cl)cc1 [Example 118],6.87,6.61,6.74
Cc1nc2cc(-c3ncccn3)c(O[C@H]3CCN4C(=O)OC[C@@H]4C3)cc2c(=O)n1Cc1ccc(Cl)cc1 [Example 119],6.40,6.03,6.04
O=C1OC[C@@H]2C[C@@H](Oc3cc4c(=O)n(Cc5ccc(Cl)cc5)c(CCN5CCOCC5)nc4cc3-c3cnn(C(F)F)c3)CCN12 [Example 120],6.02,5.62,5.99
O=C1OC[C@@H]2C[C@@H](Oc3cc4c(=O)n(Cc5ccc(Cl)cc5)c(CC5CCOCC5)nc4cc3-c3cnn(C(F)F)c3)CCN12 [Example 121],6.52,6.73,6.89
Cc1nc2cc(-c3cnccn3)c(O[C@H]3CCN4C(=O)OC[C@@H]4C3)cc2c(=O)n1Cc1ccc(Cl)cc1 [Example 122],6.42,6.07,6.27
Cc1nc2cc(-c3cnc(C(F)F)nc3)c(O[C@H]3CCN4C(=O)OC[C@@H]4C3)cc2c(=O)n1Cc1ccc(Cl)cc1 [Example 124],6.79,6.70,6.92
